Data reported in patent publication US11331299B2, “Medicinal use of serrulatane diterpenes” (The University of Sydney, priority 2016, dated 2022).

Tests used:
Assay in all cases: biochemical
Assay type in all cases: binding
[1] = target: receptors (Bioprint panel) (Homo sapiens, UniProt Q99705); conditions: MELANIN-CONCENTRATING-HORMONE MCH1 (h) (agonist radioligand); 10 μM; read-out: % Inhibition of Control Specific Binding
[2] = target: receptors (Bioprint panel) (Homo sapiens, UniProt P31391); conditions: SOMASTATIN sst4 (h) (agonist radioligand); 10 μM; read-out: % Inhibition of Control Specific Binding
[3] = target: receptors (Bioprint panel) (Homo sapiens, UniProt P30411); conditions: BRADYKININ B2 (h) (agonist radioligand); 10 μM; read-out: % Inhibition of Control Specific Binding
Sequence of receptors (Bioprint panel) (Homo sapiens, UniProt P30411) (P30411 whole entry): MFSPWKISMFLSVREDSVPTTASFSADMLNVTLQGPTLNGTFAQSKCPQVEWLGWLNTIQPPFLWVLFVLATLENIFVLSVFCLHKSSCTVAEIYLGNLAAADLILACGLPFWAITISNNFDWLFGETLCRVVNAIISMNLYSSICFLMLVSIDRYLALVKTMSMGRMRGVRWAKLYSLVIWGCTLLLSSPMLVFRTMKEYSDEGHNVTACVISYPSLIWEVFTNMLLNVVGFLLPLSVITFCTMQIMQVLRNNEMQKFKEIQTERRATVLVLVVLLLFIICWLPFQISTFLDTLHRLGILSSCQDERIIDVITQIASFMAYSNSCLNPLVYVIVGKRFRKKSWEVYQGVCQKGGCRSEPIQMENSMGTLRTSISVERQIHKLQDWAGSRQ

[4] = target: receptors (Bioprint panel) (Homo sapiens, UniProt P35348); conditions: […] alpha 1A (h) (antagonist radioligand); 10 μM; read-out: % Inhibition of Control Specific Binding
[5] = target: receptors (Bioprint panel) (Rattus norvegicus, UniProt P28564); conditions: read-out: % Inhibition of Control Specific Binding
[6] = target: receptors (Bioprint panel) (Homo sapiens, UniProt P08173); conditions: […] M4 (h) (antagonist radioligand); 10 μM; read-out: % Inhibition of Control Specific Binding
Sequence of receptors (Bioprint panel) (Homo sapiens, UniProt P08173) (P08173 whole entry): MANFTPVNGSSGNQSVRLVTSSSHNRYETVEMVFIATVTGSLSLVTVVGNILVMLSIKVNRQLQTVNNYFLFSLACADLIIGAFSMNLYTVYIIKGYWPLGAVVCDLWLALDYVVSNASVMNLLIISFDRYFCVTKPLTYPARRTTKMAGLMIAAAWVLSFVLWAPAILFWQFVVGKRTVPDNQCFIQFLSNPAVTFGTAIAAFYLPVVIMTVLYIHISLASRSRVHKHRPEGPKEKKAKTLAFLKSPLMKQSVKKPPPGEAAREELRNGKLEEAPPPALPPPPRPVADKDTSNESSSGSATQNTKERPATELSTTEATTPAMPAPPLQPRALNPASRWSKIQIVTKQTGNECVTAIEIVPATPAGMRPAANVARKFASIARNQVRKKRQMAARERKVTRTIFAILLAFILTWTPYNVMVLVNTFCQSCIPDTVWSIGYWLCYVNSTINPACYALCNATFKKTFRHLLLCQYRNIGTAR

[7] = target: receptors (Bioprint panel) (Homo sapiens, UniProt P41595); conditions: read-out: % Inhibition of Control Specific Binding
[8] = target: receptors (Bioprint panel) (Homo sapiens, UniProt P11229); conditions: […] M1 (h) (antagonist radioligand); 10 μM; read-out: % Inhibition of Control Specific Binding
[9] = target: receptors (Bioprint panel) (Homo sapiens, UniProt P28335); conditions: read-out: % Inhibition of Control Specific Binding
Sequence of receptors (Bioprint panel) (Homo sapiens, UniProt P28335) (P28335 33-458): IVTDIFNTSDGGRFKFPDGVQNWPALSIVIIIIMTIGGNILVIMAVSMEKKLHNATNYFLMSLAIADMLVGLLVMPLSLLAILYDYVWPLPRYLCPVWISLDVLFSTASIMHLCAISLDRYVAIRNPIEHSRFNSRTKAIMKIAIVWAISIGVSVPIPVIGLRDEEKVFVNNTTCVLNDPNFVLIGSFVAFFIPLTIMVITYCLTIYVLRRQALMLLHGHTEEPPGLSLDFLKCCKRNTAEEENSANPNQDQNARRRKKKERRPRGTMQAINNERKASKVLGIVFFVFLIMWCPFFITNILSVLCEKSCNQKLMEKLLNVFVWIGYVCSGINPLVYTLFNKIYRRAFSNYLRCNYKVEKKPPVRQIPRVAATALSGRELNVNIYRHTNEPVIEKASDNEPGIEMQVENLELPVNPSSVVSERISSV

[10] = target: receptors (Bioprint panel) (Rattus norvegicus, UniProt P34975); conditions: OPIOD & OPIOID-LIKE kappa (KOP) (agonist radioligand); 10 μM; read-out: % Inhibition of Control Specific Binding
Sequence of receptors (Bioprint panel) (Rattus norvegicus, UniProt P34975) (P34975 whole entry): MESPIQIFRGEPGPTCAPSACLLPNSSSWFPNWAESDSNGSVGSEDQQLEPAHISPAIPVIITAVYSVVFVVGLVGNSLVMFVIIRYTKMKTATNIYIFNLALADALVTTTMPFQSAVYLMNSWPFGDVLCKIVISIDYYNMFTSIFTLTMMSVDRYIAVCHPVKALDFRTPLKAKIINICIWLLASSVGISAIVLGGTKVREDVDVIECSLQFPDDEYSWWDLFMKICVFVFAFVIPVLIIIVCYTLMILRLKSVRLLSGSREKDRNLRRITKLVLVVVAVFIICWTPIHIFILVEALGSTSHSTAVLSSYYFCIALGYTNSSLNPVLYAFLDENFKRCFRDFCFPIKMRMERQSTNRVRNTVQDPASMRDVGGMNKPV

[11] = target: receptors (Bioprint panel) (Homo sapiens, UniProt P30518); conditions: VASOPRESSIN V2 (h) (agonist radioligand); 10 μM; read-out: % Inhibition of Control Specific Binding
[12] = target: receptors (Bioprint panel) (Homo sapiens, UniProt P29274); conditions: ADENOSINE A2A (h) (agonist radioligand); 10 μM; read-out: % Inhibition of Control Specific Binding
[13] = target: receptors (Bioprint panel) (Homo sapiens, UniProt P46098); conditions: read-out: % Inhibition of Control Specific Binding
[14] = target: receptors (Bioprint panel) (Homo sapiens, UniProt Q9Y271); conditions: read-out: % Inhibition of Control Specific Binding
[15] = target: receptors (Bioprint panel) (Homo sapiens, UniProt P50406); conditions: read-out: % Inhibition of Control Specific Binding
[16] = target: receptors (Bioprint panel) (Homo sapiens, UniProt P25021); conditions: HISTAMINE H2 (h) (antagonist radioligand); 10 μM; read-out: % Inhibition of Control Specific Binding
[17] = target: receptors (Bioprint panel) (Homo sapiens, UniProt P25101); conditions: […] (h) (agonist radioligand); 10 μM; read-out: % Inhibition of Control Specific Binding
Sequence of receptors (Bioprint panel) (Homo sapiens, UniProt P25101) (P25101 21-427): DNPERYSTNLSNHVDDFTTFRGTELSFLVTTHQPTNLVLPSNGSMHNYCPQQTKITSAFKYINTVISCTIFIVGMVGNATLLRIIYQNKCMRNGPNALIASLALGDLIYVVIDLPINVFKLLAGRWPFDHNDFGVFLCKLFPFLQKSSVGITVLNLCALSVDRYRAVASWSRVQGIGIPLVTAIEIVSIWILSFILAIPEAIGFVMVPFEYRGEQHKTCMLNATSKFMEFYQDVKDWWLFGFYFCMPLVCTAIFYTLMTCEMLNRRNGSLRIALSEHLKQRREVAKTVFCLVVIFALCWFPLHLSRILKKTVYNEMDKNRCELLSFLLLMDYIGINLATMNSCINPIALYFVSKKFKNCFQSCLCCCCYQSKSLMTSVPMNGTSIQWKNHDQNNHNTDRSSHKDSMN

[18] = target: receptors (Bioprint panel) (Homo sapiens, UniProt Q13639); conditions: read-out: % Inhibition of Control Specific Binding
[19] = target: receptors (Bioprint panel) (Homo sapiens, UniProt P43116); conditions: PROSTANOID EP2 (h) (agonist radioligand); 10 μM; read-out: % Inhibition of Control Specific Binding
[20] = target: receptors (Bioprint panel) (Homo sapiens, UniProt O43193); conditions: motilin(h) (agonist radioligand); 10 μM; read-out: % Inhibition of Control Specific Binding
Sequence of receptors (Bioprint panel) (Homo sapiens, UniProt O43193) (O43193 whole entry): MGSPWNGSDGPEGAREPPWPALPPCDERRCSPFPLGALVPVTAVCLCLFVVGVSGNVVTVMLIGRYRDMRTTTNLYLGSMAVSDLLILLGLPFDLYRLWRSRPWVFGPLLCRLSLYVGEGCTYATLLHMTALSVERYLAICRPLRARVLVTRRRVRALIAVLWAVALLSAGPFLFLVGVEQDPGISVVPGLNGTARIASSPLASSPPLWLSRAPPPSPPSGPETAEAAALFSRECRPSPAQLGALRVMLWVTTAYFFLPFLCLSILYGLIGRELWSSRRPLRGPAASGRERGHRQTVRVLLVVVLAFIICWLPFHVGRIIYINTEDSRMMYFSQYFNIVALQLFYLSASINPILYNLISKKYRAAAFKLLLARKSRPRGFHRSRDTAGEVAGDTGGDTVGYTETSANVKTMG

[21] = target: receptors (Bioprint panel) (Homo sapiens, UniProt P03372); conditions: Estrogen ER alpha (h) (agonist radioligand); 10 μM; read-out: % Inhibition of Control Specific Binding
Sequence of receptors (Bioprint panel) (Homo sapiens, UniProt P03372) (P03372 whole entry): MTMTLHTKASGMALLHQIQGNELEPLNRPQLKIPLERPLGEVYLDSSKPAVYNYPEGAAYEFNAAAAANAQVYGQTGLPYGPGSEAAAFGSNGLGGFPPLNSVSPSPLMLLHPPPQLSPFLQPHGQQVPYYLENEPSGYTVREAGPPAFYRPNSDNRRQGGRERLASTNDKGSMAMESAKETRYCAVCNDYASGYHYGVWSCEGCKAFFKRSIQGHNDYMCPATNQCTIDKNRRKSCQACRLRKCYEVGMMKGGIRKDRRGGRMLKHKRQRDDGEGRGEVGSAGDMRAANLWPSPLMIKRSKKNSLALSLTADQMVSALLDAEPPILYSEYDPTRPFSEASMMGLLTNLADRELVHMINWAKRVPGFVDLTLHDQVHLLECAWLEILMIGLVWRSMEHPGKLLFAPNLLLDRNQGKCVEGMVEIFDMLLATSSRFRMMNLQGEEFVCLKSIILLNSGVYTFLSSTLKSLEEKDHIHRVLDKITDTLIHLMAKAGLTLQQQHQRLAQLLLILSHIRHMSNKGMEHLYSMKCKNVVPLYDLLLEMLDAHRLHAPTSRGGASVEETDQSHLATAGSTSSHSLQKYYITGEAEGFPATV

[22] = target: receptors (Bioprint panel) (Homo sapiens, UniProt P07550); conditions: […] beta 2 (h) (agonist radioligand); 10 μM; read-out: % Inhibition of Control Specific Binding
[23] = target: receptors (Bioprint panel) (Homo sapiens, UniProt P28223); conditions: read-out: % Inhibition of Control Specific Binding
Sequence of receptors (Bioprint panel) (Homo sapiens, UniProt P28223) (P28223 whole entry): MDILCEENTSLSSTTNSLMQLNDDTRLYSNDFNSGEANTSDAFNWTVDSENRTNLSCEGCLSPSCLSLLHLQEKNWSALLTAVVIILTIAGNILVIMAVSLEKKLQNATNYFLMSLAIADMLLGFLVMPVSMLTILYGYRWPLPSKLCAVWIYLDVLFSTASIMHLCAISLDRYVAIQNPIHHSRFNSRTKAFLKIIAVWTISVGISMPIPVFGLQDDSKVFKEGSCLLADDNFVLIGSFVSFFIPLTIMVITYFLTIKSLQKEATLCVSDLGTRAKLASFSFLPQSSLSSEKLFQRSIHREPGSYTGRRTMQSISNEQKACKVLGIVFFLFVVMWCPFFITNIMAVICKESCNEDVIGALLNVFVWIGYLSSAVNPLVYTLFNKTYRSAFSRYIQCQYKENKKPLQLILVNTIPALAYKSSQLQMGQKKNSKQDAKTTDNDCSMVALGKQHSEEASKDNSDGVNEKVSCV

[24] = target: receptors (Bioprint panel) (Mus musculus, UniProt Q01727); conditions: MELANOCORTIN MC1 (agonist radioligand); 10 μM; read-out: % Inhibition of Control Specific Binding
Sequence of receptors (Bioprint panel) (Mus musculus, UniProt Q01727) (Q01727 whole entry): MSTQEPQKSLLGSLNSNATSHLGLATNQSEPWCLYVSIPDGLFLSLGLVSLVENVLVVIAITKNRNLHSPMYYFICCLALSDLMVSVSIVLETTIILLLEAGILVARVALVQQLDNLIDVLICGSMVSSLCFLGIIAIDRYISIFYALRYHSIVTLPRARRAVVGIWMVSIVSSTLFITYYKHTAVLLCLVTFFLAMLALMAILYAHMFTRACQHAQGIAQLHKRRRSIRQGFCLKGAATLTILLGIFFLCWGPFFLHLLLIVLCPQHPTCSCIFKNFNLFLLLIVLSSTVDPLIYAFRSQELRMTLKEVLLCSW

[25] = target: receptors (Bioprint panel) (Homo sapiens, UniProt P29275); conditions: ADENOSINE A2B (h) (antagonist radioligand); 10 μM; read-out: % Inhibition of Control Specific Binding
Sequence of receptors (Bioprint panel) (Homo sapiens, UniProt P29275) (P29275 whole entry): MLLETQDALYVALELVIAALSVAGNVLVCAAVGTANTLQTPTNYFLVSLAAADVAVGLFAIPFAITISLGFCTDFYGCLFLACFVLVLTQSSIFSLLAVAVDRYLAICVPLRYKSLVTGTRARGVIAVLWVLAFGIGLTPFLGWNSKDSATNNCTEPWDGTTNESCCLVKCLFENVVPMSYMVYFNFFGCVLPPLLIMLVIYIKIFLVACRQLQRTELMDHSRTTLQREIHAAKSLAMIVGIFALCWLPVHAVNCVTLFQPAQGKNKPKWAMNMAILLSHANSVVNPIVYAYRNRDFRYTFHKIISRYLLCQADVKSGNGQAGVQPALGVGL

[26] = target: receptors (Bioprint panel) (Homo sapiens, UniProt P08588); conditions: […] beta 1 (h) (agonist radioligand); 10 μM; read-out: % Inhibition of Control Specific Binding
Sequence of receptors (Bioprint panel) (Homo sapiens, UniProt P08588) (P08588 whole entry): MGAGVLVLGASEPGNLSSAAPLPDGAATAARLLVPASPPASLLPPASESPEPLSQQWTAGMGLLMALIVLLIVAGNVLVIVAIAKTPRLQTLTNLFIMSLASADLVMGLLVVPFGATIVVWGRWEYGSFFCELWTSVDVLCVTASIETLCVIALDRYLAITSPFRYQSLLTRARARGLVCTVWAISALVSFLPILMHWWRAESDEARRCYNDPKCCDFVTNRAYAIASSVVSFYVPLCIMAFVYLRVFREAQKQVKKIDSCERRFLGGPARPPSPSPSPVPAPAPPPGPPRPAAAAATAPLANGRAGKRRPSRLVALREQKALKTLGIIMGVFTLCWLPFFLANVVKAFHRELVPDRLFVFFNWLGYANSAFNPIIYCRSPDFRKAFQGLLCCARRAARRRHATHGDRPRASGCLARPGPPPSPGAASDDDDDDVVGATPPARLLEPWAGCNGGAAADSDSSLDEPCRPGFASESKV

[27] = target: receptors (Bioprint panel) (Homo sapiens, UniProt P25103); conditions: NEUROKININ NK1 (h) (agonist radioligand); 10 μM; read-out: % Inhibition of Control Specific Binding
[28] = target: receptors (Bioprint panel) (Homo sapiens, UniProt P32247); conditions: BOMBESIN BB3 (h) (agonist radioligand); 10 μM; read-out: % Inhibition of Control Specific Binding

CC(C)=CCC[C@H](CO)[C@@H]1CC[C@@H](C)c2c1cc(C)c(O)c2O [Compound 1, 7,8,18-trihydroxyserrulat-14-ene]
inhibition at 10 µM [1]: -5% | inhibition at 10 µM [2]: 40% | inhibition at 10 µM [3]: -37% | inhibition at 10 µM [4]: 17% | inhibition at 10 µM [5]: 42% | inhibition at 10 µM [6]: 19% | inhibition at 10 µM [7]: 70% | inhibition at 10 µM [8]: 8% | inhibition at 10 µM [9]: 32% | inhibition at 10 µM [10]: 39% | inhibition at 10 µM [11]: 11% | inhibition at 10 µM [12]: 18% | inhibition at 10 µM [13]: -2% | inhibition at 10 µM [14]: 10% | inhibition at 10 µM [15]: 42% | inhibition at 10 µM [16]: 37% | inhibition at 10 µM [17]: 6% | inhibition at 10 µM [18]: 2% | inhibition at 10 µM [19]: 53% | inhibition at 10 µM [20]: -12% | inhibition at 10 µM [21]: 40% | inhibition at 10 µM [22]: 2% | inhibition at 10 µM [23]: 9% | inhibition at 10 µM [24]: 11% | inhibition at 10 µM [25]: 8% | inhibition at 10 µM [26]: 19% | inhibition at 10 µM [27]: 62% | inhibition at 10 µM [28]: 26%
